The source made the active and inactive calls. How the calls were made is not given here.
Tested on: CCRIS mutagenicity, Ames/micronucleus/aberration tests
Experiment: CCRIS mutagenicity studies
[1] = Test System: AMES SALMONELLA TYPHIMURIUM, Strain/Indicator: TA98, Metabolic Activation: NONE, Method: STANDARD PLATE
[2] = Test System: AMES SALMONELLA TYPHIMURIUM, Strain/Indicator: TA98, Metabolic Activation: RAT, LIVER, S-9, AROCLOR 1254, Method: STANDARD PLATE
[3] = Test System: AMES SALMONELLA TYPHIMURIUM, Strain/Indicator: TA100, Metabolic Activation: NONE, Method: STANDARD PLATE
[4] = Test System: AMES SALMONELLA TYPHIMURIUM, Strain/Indicator: TA100, Metabolic Activation: RAT, LIVER, S-9, AROCLOR 1254, Method: STANDARD PLATE
[5] = Test System: AMES SALMONELLA TYPHIMURIUM, Strain/Indicator: TA1535, Metabolic Activation: NONE, Method: STANDARD PLATE
[6] = Test System: AMES SALMONELLA TYPHIMURIUM, Strain/Indicator: TA1535, Metabolic Activation: RAT, LIVER, S-9, AROCLOR 1254, Method: STANDARD PLATE
[7] = Test System: AMES SALMONELLA TYPHIMURIUM, Strain/Indicator: TA1537, Metabolic Activation: NONE, Method: STANDARD PLATE
[8] = Test System: AMES SALMONELLA TYPHIMURIUM, Strain/Indicator: TA1537, Metabolic Activation: RAT, LIVER, S-9, AROCLOR 1254, Method: STANDARD PLATE
[9] = Test System: AMES SALMONELLA TYPHIMURIUM, Strain/Indicator: TA1538, Metabolic Activation: NONE, Method: STANDARD PLATE
[10] = Test System: AMES SALMONELLA TYPHIMURIUM, Strain/Indicator: TA1538, Metabolic Activation: RAT, LIVER, S-9, AROCLOR 1254, Method: STANDARD PLATE

Measured: mutagenic call

C=C(C)C(=O)OCCO
inactive: Test System: AMES SALMONELLA TYPHIMURIUM, Strain/Indicator: TA97A, Metabolic Activation: NONE, Method: STANDARD PLATE inactive; negative | [1] inactive; negative | [2] inactive; negative | Test System: AMES SALMONELLA TYPHIMURIUM, Strain/Indicator: TA98, Metabolic Activation: RAT, LIVER, S-9, SODIUM PHENOBARBITAL, Method: STANDARD PLATE inactive; negative | [3] inactive; negative | [4] inactive; negative | Test System: AMES SALMONELLA TYPHIMURIUM, Strain/Indicator: TA100, Metabolic Activation: RAT, LIVER, S-9, SODIUM PHENOBARBITAL, Method: STANDARD PLATE inactive; negative | Test System: AMES SALMONELLA TYPHIMURIUM, Strain/Indicator: TA102, Metabolic Activation: NONE, Method: STANDARD PLATE inactive; negative | Test System: AMES SALMONELLA TYPHIMURIUM, Strain/Indicator: TA104, Metabolic Activation: NONE, Method: STANDARD PLATE inactive; negative | [5] inactive; negative | [6] inactive; negative | Test System: AMES SALMONELLA TYPHIMURIUM, Strain/Indicator: TA1535, Metabolic Activation: RAT, LIVER, S-9, SODIUM PHENOBARBITAL, Method: STANDARD PLATE inactive; negative | [7] inactive; negative | [8] inactive; negative | Test System: AMES SALMONELLA TYPHIMURIUM, Strain/Indicator: TA1537, Metabolic Activation: RAT, LIVER, S-9, SODIUM PHENOBARBITAL, Method: STANDARD PLATE inactive; negative | [9] inactive; negative | [10] inactive; negative | Test System: AMES SALMONELLA TYPHIMURIUM, Strain/Indicator: TA1538, Metabolic Activation: RAT, LIVER, S-9, SODIUM PHENOBARBITAL, Method: STANDARD PLATE inactive; negative | Test System: CHINESE HAMSTER V-79, Strain/Indicator: V79 (HPRT)/6-THIOGUANINE, Metabolic Activation: NONE inactive; negative

Cc1ccc2ccc3ccc(C)cc3c2c1
inactive: Test System: AMES SALMONELLA TYPHIMURIUM, Strain/Indicator: TA97, Metabolic Activation: NONE, Method: STANDARD PLATE inactive; negative | Test System: AMES SALMONELLA TYPHIMURIUM, Strain/Indicator: TA97, Metabolic Activation: RAT, LIVER, S-9, PCB, Method: STANDARD PLATE inactive; negative | [1] inactive; negative | [3] inactive; negative | Test System: AMES SALMONELLA TYPHIMURIUM, Strain/Indicator: TA100, Metabolic Activation: RAT, LIVER, S-9, PCB, Method: STANDARD PLATE inactive; negative
active: Test System: AMES SALMONELLA TYPHIMURIUM, Strain/Indicator: TA98, Metabolic Activation: RAT, LIVER, S-9, PCB, Method: STANDARD PLATE active; positive

O=c1c(O)c(O)c1=O
inactive: Test System: AMES SALMONELLA TYPHIMURIUM, Strain/Indicator: TA98, Metabolic Activation: HAMSTER, LIVER, S-9, AROCLOR 1254, Method: STANDARD PLATE inactive; negative | [1] inactive; negative | [2] inactive; negative | Test System: AMES SALMONELLA TYPHIMURIUM, Strain/Indicator: TA100, Metabolic Activation: HAMSTER, LIVER, S-9, AROCLOR 1254, Method: STANDARD PLATE inactive; negative | [3] inactive; negative | [4] inactive; negative | Test System: AMES SALMONELLA TYPHIMURIUM, Strain/Indicator: TA1535, Metabolic Activation: HAMSTER, LIVER, S-9, AROCLOR 1254, Method: STANDARD PLATE inactive; negative | [5] inactive; negative | [6] inactive; negative | Test System: AMES SALMONELLA TYPHIMURIUM, Strain/Indicator: TA1537, Metabolic Activation: HAMSTER, LIVER, S-9, AROCLOR 1254, Method: STANDARD PLATE inactive; negative | [7] inactive; negative | [8] inactive; negative | Test System: AMES SALMONELLA TYPHIMURIUM, Strain/Indicator: TA1538, Metabolic Activation: HAMSTER, LIVER, S-9, AROCLOR 1254, Method: STANDARD PLATE inactive; negative | [9] inactive; negative | [10] inactive; negative | Test System: MOUSE LYMPHOMA, Strain/Indicator: L5178Y (TK+/TK-), Metabolic Activation: NONE, Method: SUSPENSION/PLATE inactive; negative. reevaluation of results: negative | Test System: MOUSE LYMPHOMA, Strain/Indicator: L5178Y (TK+/TK-), Metabolic Activation: RAT, LIVER, S-9, AROCLOR 1254, Method: SUSPENSION/PLATE inactive; negative. reevaluation of results: negative

CC(=O)C=O
active: Test System: AMES SALMONELLA TYPHIMURIUM, Strain/Indicator: TA98, Metabolic Activation: NONE, Method: PREINCUBATION active; positive | Test System: AMES SALMONELLA TYPHIMURIUM, Strain/Indicator: TA100, Metabolic Activation: NONE, Method: PREINCUBATION active; positive | [3] active; positive | Test System: AMES SALMONELLA TYPHIMURIUM, Strain/Indicator: TA100, Metabolic Activation: RAT, LIVER, S-9, AROCLOR 1254, Method: PREINCUBATION active; positive | Test System: AMES SALMONELLA TYPHIMURIUM, Strain/Indicator: TA102, Metabolic Activation: NONE, Method: PREINCUBATION active; positive | Test System: AMES SALMONELLA TYPHIMURIUM, Strain/Indicator: TA102, Metabolic Activation: RAT, LIVER, S-9, AROCLOR 1254, Method: PREINCUBATION active; positive | Test System: AMES SALMONELLA TYPHIMURIUM, Strain/Indicator: TA102, Metabolic Activation: RAT, LIVER, S-9, PHENOBARBITAL AND BETA-NAPHTHOFLAVONE, Method: PREINCUBATION active; positive | Test System: AMES SALMONELLA TYPHIMURIUM, Strain/Indicator: TA104, Metabolic Activation: NONE, Method: PREINCUBATION active; positive | Test System: AMES SALMONELLA TYPHIMURIUM, Strain/Indicator: TA104, Metabolic Activation: RAT, LIVER, S-9, PHENOBARBITAL AND BETA-NAPHTHOFLAVONE, Method: PREINCUBATION active; positive | Test System: AMES SALMONELLA TYPHIMURIUM, Strain/Indicator: TA2638, Metabolic Activation: NONE, Method: PREINCUBATION active; positive | Test System: AMES SALMONELLA TYPHIMURIUM, Strain/Indicator: TA2659, Metabolic Activation: NONE, Method: PREINCUBATION active; positive | Test System: CHINESE HAMSTER V-79, Strain/Indicator: V-79/6-THIOGUANINE, Metabolic Activation: NONE, Method: PREINCUBATION active; positive | Test System: CHINESE HAMSTER V-79, Strain/Indicator: V-79/6-THIOGUANINE, Metabolic Activation: RAT HEPATOCYTES, Method: PREINCUBATION active; positive
inactive: Test System: AMES SALMONELLA TYPHIMURIUM, Strain/Indicator: TA98, Metabolic Activation: RAT, LIVER, S-9, AROCLOR 1254, Method: PREINCUBATION inactive; negative

c1ccc(-c2nc(-c3ccccc3)c(-c3ccccc3)[nH]2)cc1
inactive: Test System: AMES SALMONELLA TYPHIMURIUM, Strain/Indicator: TA98, Metabolic Activation: RAT LIVER S-9, 3-METHYLCHOLANTHRENE, SODIUM PHENOBARBITAL, Method: STANDARD PLATE inactive; negative | Test System: AMES SALMONELLA TYPHIMURIUM, Strain/Indicator: TA100, Metabolic Activation: RAT LIVER S-9, 3-METHYLCHOLANTHRENE, SODIUM PHENOBARBITAL, Method: STANDARD PLATE inactive; negative
active: [1] active; positive | [3] active; positive

CC1(C)SC2[C@H](NC(=O)C(N)c3ccccc3)C(=O)N2[C@H]1C(=O)O.[Cl][Pt].[H+] (stereo not given in full)
inactive: Test System: MOUSE LYMPHOMA, Strain/Indicator: L5178Y(LY-R) (HGPRT)/6-THIOGUANINE, Metabolic Activation: NONE inactive; negative

O=C(O)CCC(=O)Nc1cc(Cl)cc(Cl)c1
inactive: [1] inactive; negative | [2] inactive; negative | [3] inactive; negative | [4] inactive; negative
